Earlier results on eight molecules are cited in paper PMC11949389 (Polish Journal of Microbiology, 2025).

≈ marks a conversion by molar mass, not a printed value. Like-named read-outs stand apart in the source and are kept apart here.

Data set [1] deals with Staphylococcus aureus. To be noted: ref Mastoor et al. 2022.
The subject of the next data set is Staphylococcus sp. To be noted: ref Caballero Gómez et al. 2022.
A further data set relates to Malassezia pachydermatis. To be noted: ref Schlemmer et al. 2019, Sim et al. 2019.
The test system of data set [2] is Enterococcus, Pseudomonas, and Staphylococcus strains. To be noted: ref Caballero Gómez et al. (2022).
A further data set deals with Enterococcus sp. To be noted: ref Caballero Gómez et al. 2022.
The test system of data set [3] is Vibrio anguillarum, and Vibrio harveyi. To be noted: ref Rossi et al. (2021).
In another data set the test system is Vibrio anguillarum. To be noted: ref Rossi et al. 2021.
In a further data set the test system is Vibrio harveyi. To be noted: ref Rossi et al. 2021.
A further data set deals with Pseudomonas sp. To be noted: ref Caballero Gómez et al. 2022.
Another data set concerns Streptococcus suis. To be noted: ref de Aguiar et al. 2019.
For data set [4], the system named is amphotericin B-resistant C. albicans. To be noted: varying among Candida isolates; ref Touil et al. (2020).
In data set [5] the test system is Vancomycin-sensitive Enterococcus (VSE).
Data set [6] has as its system Ciprofloxacin-resistant Escherichia coli. To be noted: resistant E. coli strains; ref Owen et al. (2019).
Data set [7] concerns bacteria co-isolated with C. albicans. To be noted: ref Touil et al. (2020).
Data set [8] deals with Methicillin-susceptible Staphylococcus aureus. To be noted: ref Owen et al. 2019.
For data set [9], the system named is C. albicans and co-isolated bacteria. To be noted: carvacrol combined with cuminaldehyde; ref Touil et al. (2020).
Data set [10] concerns Vancomycin-resistant Enterococcus (VRE). To be noted: vancomycin-resistant enterococci strains; ref Owen et al. (2019).
Data set [11] relates to Candida albicans. To be noted: ref Shaban et al. 2020.
Data set [12] concerns Candida auris. To be noted: Candida auris; ref Shaban et al. 2020.
In data set [13] the test system is Candida auris. To be noted: ref Shaban et al. 2020.
Data set [14] has as its system Candida albicans. To be noted: Candida albicans; ref Sharifzadeh et al. 2019; Iraji et al. 2020; Shaban et al. 2020; Stringaro et al. 2022; Biernasiuk et al. 2022.
Data set [15] has as its system Chikungunya virus (CHIKV). To be noted: ref Kumar et al. (2021).
Another data set relates to Campylobacter jejuni. To be noted: for MIC/Sensitivity: Campylobacter jejuni, ref Šimunović et al. 2020; for MIC: ref Šimunović et al. (2020).
For data set [16], the system named is Mupirocin-resistant Staphylococcus aureus. To be noted: ref Kwiatkowski et al. 2019.
A further data set deals with Enterobacter aerogenes. To be noted: ref Sayout et al. 2020.
Another data set relates to Enterobacter cloacae. To be noted: ref Sayout et al. 2020.
For data set [17], the system named is Methicillin-resistant Staphylococcus aureus. To be noted: in combination with penicillin G, MRSA isolates; ref Kwiatkowski et al. (2020).
The test system of a further data set is Salmonella spp. To be noted: ref Sayout et al. 2020.
For a further data set, the system named is Acinetobacter baumannii. To be noted: for MIC/Sensitivity: ref Sayout et al. 2020.
In data set [18] the test system is Staphylococcus aureus. To be noted: for MIC: S. aureus; for MIC/Sensitivity: Staphylococcus aureus, ref Kwiatkowski et al. 2020, Sayout et al. 2020, Sousa Silveira et al. 2020, Macêdo et al. 2022, Noumi et al. 2023, Sharma et al. 2023.
Data set [19] relates to Mupirocin-susceptible Staphylococcus aureus. To be noted: ref Kwiatkowski et al. 2019.
In a further data set the test system is Klebsiella oxytoca. To be noted: ref Sayout et al. 2020.
Another data set concerns Klebsiella pneumoniae. To be noted: ref Sayout et al. 2020, de Souza et al. 2021, Kwiatkowski et al. 2022.
Data set [20] has as its system Ciprofloxacin-resistant Pseudomonas aeruginosa. To be noted: resistant P. aeruginosa strains; ref Owen et al. (2019).
The subject of data set [21] is β-haemolytic Streptococcus spp. To be noted: ref Sim et al. 2019.
For another data set, the system named is TetK efflux pump. To be noted: S. aureus, ref Sousa Silveira et al. (2020).
Data set [22] relates to Staphylococcus pseudintermedius. To be noted: Staphylococcus pseudintermedius; ref Sim et al. 2019.
A further data set relates to Salmonella Typhimurium. To be noted: ref Giovagnoni et al. (2020).
In a further data set the test system is Candida tropicalis. To be noted: Candida tropicalis; ref Iraji et al. 2020; Stringaro et al. 2022.
In the next data set the test system is Candida species. To be noted: ref Stringaro et al. (2022).
In the next data set the test system is HIV-1. To be noted: HIV-1; ref Mediouni et al. (2020).
The next data set concerns Candida glabrata. To be noted: Candida glabrata; ref Sharifzadeh et al. 2019; Iraji et al. 2020; Biernasiuk et al. 2022; Stringaro et al. 2022.
In a further data set the test system is Candida krusei. To be noted: Candida krusei; ref Sharifzadeh et al. 2019; Iraji et al. 2020; Biernasiuk et al. 2022; Stringaro et al. 2022.
The subject of a further data set is Proteus mirabilis. To be noted: ref Sim et al. 2019.
The test system of another data set is Salmonella Thyphimurium. To be noted: ref Giovagnoni et al. 2020.
Another data set concerns staphylococcal isolates. To be noted: ref Sim et al. 2019.

For the molecule `O=CC(Br)=Cc1ccccc1` [α-Bromo-trans-cinnamaldehyde], the Mechanisms of action result in the data set on Staphylococcus aureus [1] is recorded as “• Gene expression reduction linked to intracellular adhesion”.

Usually MIC stands for the smallest concentration in the dilution series that meets the test's criterion for growth inhibition. Take `O=C/C=C/c1ccccc1` [Cinnamaldehyde]: the MIC/Sensitivity with Staphylococcus sp. is 0.01 to 0.05 mg/mL; in the data set with Malassezia pachydermatis, 0.0025 to 0.64 mg/mL; with Enterococcus sp., 0.01 to 0.05 mg/mL; with Vibrio anguillarum, 555.75 mg/mL (≈ 4210 mM); with Vibrio harveyi it was 278.616 mg/mL (≈ 2110 mM); in the data set on Pseudomonas sp., 0.01 to 0.05 mg/mL. Also, the MIC/Sensitivity with Streptococcus suis is 0.15625 to 0.3125 mg/mL. Further, the MIC in data set [2] was 0.01 to 0.05 mg/mL; in data set [3], 0.94 to 7.5 mM.

In the case of `CC(C)c1ccc(C=O)cc1` [Cuminaldehyde], the MIC was 2 to 4 mg/mL in data set [4]; 134.41 mM (≈ 19900 µg/mL) in [5] (vancomycin-susceptible enterococci (VSE), ref Owen et al. (2019)); 8.40 mM (≈ 1240 µg/mL) in data set [6]; 1,000–4,000 μg/ml in data set [7]; 2.10 mM (≈ 311 µg/mL) in the data set with Escherichia coli (antibiotic-sensitive E. coli, ref Owen et al. (2019)); 537.65 mM (≈ 79700 µg/mL) in [10]. Besides, in data set [8], the MIC/Sensitivity is 4979.52 mg/mL (≈ 33600 mM). In addition, in [9], the MIC in combination is reported as 500–2,000 μg/ml.

For the molecule `C=CCc1ccc(OC)c(OC)c1` [Methyl eugenol], the Mechanisms of action entry in the data set with Candida albicans [11] was “• Reduced proteinase production”; in the data set with Candida auris [13], “• Reduced proteinase production and host cell adherence”. For the same molecule, the MIC/Sensitivity in the data set with Candida auris [12] and with Candida albicans [14] was 1.25 mg/mL (≈ 7.01 mM) in each case.

By EC50 is commonly meant the concentration needed to bring the measured effect to its halfway point. In the case of `CC1=CC(=O)C(C(C)C)=CC1=O` [Thymoquinone], the EC50 in [15] (CHIKV replication) was 4.48 µM. For the same molecule, the “reduction of CHIKV titer” value in [15] (plaque reduction assay, 20 μM) was “over 90%”. In the data set with Campylobacter jejuni, the MIC/Sensitivity is 0.03125 mg/mL (≈ 0.19 mM) and the MIC was 0.03125 mg/mL (≈ 0.19 mM).

For the molecule `CC12CCC(CC1)C(C)(C)O2` [1,8-Cineole], the MIC/Sensitivity in data set [16] is 57.56 mg/mL (≈ 373 mM); in the data set on Enterobacter aerogenes, 0.00281 mg/mL (≈ 0.0182 mM); in the data set on Escherichia coli (Escherichia coli, ref Owen et al. 2019, Sayout et al. 2020, Noumi et al. 2023), 0.00281 mg/mL (≈ 0.0182 mM); with Enterobacter cloacae, 0.00563 mg/mL (≈ 0.0365 mM); in the data set on Salmonella spp., 0.0075 mg/mL (≈ 0.0486 mM); with Acinetobacter baumannii it was 0.00563 mg/mL (≈ 0.0365 mM). The MIC/Sensitivity is 0.00563 to 115.1 mg/mL with Staphylococcus aureus [18], 307 mg/mL (≈ 1990 mM) in data set [19], 0.00563 mg/mL (≈ 0.0365 mM) in the data set with Klebsiella oxytoca and 0.01125 mg/mL (≈ 0.0729 mM) with Klebsiella pneumoniae. For the same molecule, in data set [3], the “activity at the tested concentrations” value is “no activity”. In [17], the FICI is recorded as 0.1. The MIC with Staphylococcus aureus [18] (ref Kwiatkowski et al. (2020)) is recorded as 28,800– 57,600 μg/ml.

As to `C=CC(C)(O)CCC=C(C)C` (centres unmarked) [Linalool], the MIC in the data set on Pseudomonas aeruginosa (antibiotic-sensitive P. aeruginosa, ref Owen et al. (2019)) is 228.20 mM (≈ 35200 µg/mL); in [20] it was 912.90 mM (≈ 141000 µg/mL). Further, the “reduction in vancomycin’s MIC” value in data set [5] (binary combinations with vancomycin, VSE, ref Owen et al. (2020)) is on record as “four to eight-fold reduction”. Also, the MIC/Sensitivity in data set [16] is 2.83 mg/mL (≈ 18.3 mM); in the data set with Enterobacter aerogenes, 0.00144 mg/mL (≈ 0.00934 mM); in the data set on Enterobacter cloacae, 0.00192 mg/mL (≈ 0.0124 mM); in the data set with Salmonella spp., 0.00288 mg/mL (≈ 0.0187 mM); with Acinetobacter baumannii, 0.00144 mg/mL (≈ 0.00934 mM); with Staphylococcus aureus [18], 0.00288 to 6.8 mg/mL. Also, the MIC/Sensitivity was 6.8 mg/mL (≈ 44.1 mM) in data set [19], 0.00144 mg/mL (≈ 0.00934 mM) with Klebsiella oxytoca and 0.00383 mg/mL (≈ 0.0248 mM) in the data set on Klebsiella pneumoniae. Further, the “activity at the tested concentrations” value in [3] is given as “no activity”.

One may read the MIC90 as an inhibitory concentration at the 90% level, which refers to growth in some studies and to a panel of isolates in others. The term IC50 denotes the concentration at which inhibition is half-maximal. `Cc1ccc(C(C)C)c(O)c1` [Thymol]: the MIC90 is 0.8 mg/mL (≈ 5.33 mM) in the data set with Pseudomonas aeruginosa (P. aeruginosa, ref Sim et al. 2019); 0.292 to 0.4 mg/mL in data set [21] (β-hemolytic Streptococcus); 0.2 to 0.292 mg/mL with Proteus mirabilis; 0.146 to 0.2 mg/mL in the data set with staphylococcal isolates. Moreover, the MIC/Sensitivity in the data set on Pseudomonas aeruginosa (Pseudomonas aeruginosa, ref Owen et al. 2019, Sim et al. 2019, Noumi et al. 2023) is 0.4 to 0.8 mg/mL; in the data set with Staphylococcus sp., 0.2 to 0.4 mg/mL; in data set [21] (β-haemolytic Streptococcus spp.) it was 0.2 to 0.4 mg/mL; in the data set with Campylobacter jejuni, 0.03125 mg/mL (≈ 0.208 mM); in the data set with Malassezia pachydermatis, 0.01 to 0.8 mg/mL; in the data set on Enterococcus sp. it was 0.2 to 0.45 mg/mL. Also, the MIC/Sensitivity in data set [22] was 0.1 to 0.2 mg/mL; in the data set on Candida auris [12] it was 0.312 mg/mL (≈ 2.08 mM); with Candida tropicalis, 0.39 mg/mL (≈ 2.6 mM); with Candida glabrata, 0.39 mg/mL (≈ 2.6 mM); with Staphylococcus aureus [18], 0.072 to 0.8 mg/mL; with Candida krusei it was 0.39 mg/mL (≈ 2.6 mM). In addition, the MIC/Sensitivity in the data set with Candida albicans [14] was 0.195 to 0.625 mg/mL; with Proteus mirabilis it was 0.2 mg/mL (≈ 1.33 mM); in the data set on Pseudomonas sp., 0.1 to 0.3 mg/mL; in the data set on Klebsiella pneumoniae, 0.78 mg/mL (≈ 5.19 mM); in the data set with Streptococcus suis, 0.15625 mg/mL (≈ 1.04 mM). The Mechanisms of action result was “• Reduced proteinase production” in the data set on Candida albicans [11]; “• Reduced proteinase production and host cell adherence” with Candida auris [13]; “• Anti-inflammatory effects • Anti-oxidant properties • Enhanced epithelial barrier integrity • Reduction of bacterial translocation • Improved transepithelial electrical resistance • Inhibited bacterial growth” with Salmonella Thyphimurium. Also, the MIC in the data set with Campylobacter jejuni was 0.03125 mg/mL (≈ 0.208 mM); in [3], 0.94 to 7.5 mM; in the data set with Candida auris [12], 0.312 mg/mL (≈ 2.08 mM); in the data set on Salmonella Typhimurium, 1.87 mM (≈ 281 µg/mL); with Candida species it was 0.195 to 0.39 mg/mL; in the data set on Staphylococcus aureus [18] (ref Sharma et al. (2023)), 125 to 250 µg/mL. For the same molecule, the MIC in the data set on Staphylococcus aureus [18] (ref Sousa Silveira et al. (2020)) was 72 µg/mL (≈ 0.479 mM). Also, in the data set with TetK efflux pump, the efflux pump inhibition entry is recorded as “did not act as efflux pump inhibitors”. In addition, in the data set on HIV-1, the IC50 was 25.2 µM. Besides, the FICI in the data set on Acinetobacter baumannii (combined with ciprofloxacin, ref Aleksic Sabo et al. (2021)) was 0.25–0.32.
